The record followed here is publication PMC13113287, “Synthesis and Biological Profiling of New 1,2,3,4-Tetrahydrobenzo[h]naphthyridine-Based Hybrids as Dual Inhibitors of β-Amyloid and Tau Aggregation with Anticholinesterase Activity” (Biomolecules, 2026).

For this series the following is noted: reference drugs for assay validation; mean ± SD of three experiments in triplicate.

As to `CCn1cc(C(=O)O)c(=O)c2cc(F)c(N3CCNCC3)cc21` [Norfloxacin], the “Experimental Pe (PAMPA-BBB)” value is on record as 0.8 ± 0.05 10^−6 cm s^−1.
Then `CN1C(C(=O)Nc2ccccn2)=C(O)c2ccccc2S1(=O)=O` [Piroxicam], with 2.4 ± 0.07 10^−6 cm s^−1.
